Measured values reported in the OligoGym collection.
These antisense oligonucleotides have a phosphorothioate backbone; sugars and methylation of C are not fully specified.

target: SMAD4; conditions: ASO
Further: test concentration or dose not given here.

Sequence | remaining target (mRNA or protein) (fraction of control)
TGAAGCCTCCCATCCAAT | 0.9
TGACAAGTTCTGAAGAGG | ≥ 1
TGACGCTGCTTTTAGTGT | ≥ 1
TGGATGAAAGATTACAAT | ≥ 1
TTCACAAAACTCATCCTG | ≥ 1
TTGGGAAAGTTGGCAGTG | ≥ 1
TTTAAGGGATTCTCAATA | ≥ 1
TTTGATGCTCTGTCTTGG | ≥ 1

target: RIPK1; conditions: ASO

Sequence | remaining target (mRNA or protein) (fraction of control)
AAAAGGGTCATGGGAGAC | ≥ 1
ACATCTGGCCTGTTCCCA | 0.56
ACTGGGATATTATGCAGA | 0.98
AGTCTGTTCATCATCTTC | 0.96
ATAAAGATGGTAGTTGGC | ≥ 1
ATCTGGTAAACCTTTTCT | 0.99
ATCTTAATGACATTCAAG | ≥ 1
ATTCGCTTCCCAGCAGAG | 0.7
ATTCTCTTCTTGTGGGTG | ≥ 1
ATTTTATAGATTCATCTG | ≥ 1
CAAGTTGAAGAGACTGCA | ≥ 1
CAATGATTTCCCAAATTA | ≥ 1
CAGTGCTTTCCCAGATTT | 0.94
CATGGTCAATTTCATCAA | ≥ 1
CCACTTCCCTCAGCTCAT | ≥ 1
CCATATAATTGTAGGCTC | ≥ 1
CCATGTAGTAGAGGGTGC | ≥ 1
CCCTATCAGTGAGGACAG | ≥ 1
CCCTGGGTTCTGTGGAAA | 0.7
CTCTATGATGACGCCCAG | 0.69

Sequence | remaining target (mRNA or protein) (fraction of control)
CTGTGGCTGAATTTGACC | ≥ 1
GAAGTTTGAGACCAGCCT | ≥ 1
GACCCATCCCAAGTCCCT | ≥ 1
GCCACATTCTGTCTGGGC | 0.72
GGATCCAGTGGTCTTGTT | 0.84
GGCATGGTGGGTGTATTT | ≥ 1
GGTTAGTTCTGGCTGACG | ≥ 1
GTGCATCAGGTTGCCCTT | ≥ 1
GTGCCTTTTCCCTCTGTA | 0.84
TATCAAAGATAGCTTGGT | ≥ 1
TATGGCTCCTTATTTGCA | 0.78
TCCCAGCACTTTGGAAGG | ≥ 1
TGAGGTTGGCTGGTGAGC | 0.83
TGCTCCACATCTTAAAGG | 0.75
TGGAAGTCATTATCAACA | ≥ 1
TGTCCAGTTCTGCACTCT | 0.81
TTAAACTCTTCACGTCCT | 0.85
TTGTGCTGTCTAGTAGTG | ≥ 1
TTGTGTATCACGCCTTTT | ≥ 1
TTTCCCCATTCTCCAGCT | 0.85

target: PTEN; conditions: ASO

Sequence | remaining target (mRNA or protein) (fraction of control)
AATTATTTCCTTTCTGAG | 0.86
ACATAGCGCCTCTGACTG | 0.28
ACTGGAATAAAACGGGAA | 0.85
ACTTCAGTTGGTGACAGA | 0.31
ATGGTGACAGGCGACTCA | 0.25
ATTACACCAGTTCGTCCC | 0.41
ATTGTTGCTGTGTTTCTT | 0.36
ATTTCTTGATCACATAGA | ≥ 1
CAAGATCTTCACAAAAGG | ≥ 1
CAGATTAATAACTGTAGC | 0.91
CAGGAGAAGCCGAGGAAG | 0.49
CCCCAATACAGATTCACT | 0.48
CCCGCGGCTGCTCACAGG | 0.19
CCGGGTCCCTGGATGTGC | 0.24
CCTCCGAACGGCTGCCTC | 0.4
CGAGAGGCGGACGGGACC | ≥ 1
CGCTTGGCTCTGGACCGC | 0.16
CGGGCGCCTCGGAAGACC | 0.38
GAATATATCTTCACCTTT | 0.58
GGAAGAACTCTACTTTGA | 0.62
GGATAAATATAGGTCAAG | ≥ 1
GGGAGGTGCCGCCGCCGC | 0.58
